One block for each compound: values may come before it.
Assays:
GLP-1R [1] = target: T1, GLP-1R (Rattus norvegicus, UniProt P32301); assay: Antagonistic experiment with Exendin9-39 on S4P-induced reporter gene expression in HEK 293/GLP-1R+Luc cells; format: cell-based
T1 construct: expressed in transfected cells; host or cells: HEK 293 (human embryonic kidney), stably transfected; self-made by National New Drugs Screening Center
T1 sequence (P32301 22-463): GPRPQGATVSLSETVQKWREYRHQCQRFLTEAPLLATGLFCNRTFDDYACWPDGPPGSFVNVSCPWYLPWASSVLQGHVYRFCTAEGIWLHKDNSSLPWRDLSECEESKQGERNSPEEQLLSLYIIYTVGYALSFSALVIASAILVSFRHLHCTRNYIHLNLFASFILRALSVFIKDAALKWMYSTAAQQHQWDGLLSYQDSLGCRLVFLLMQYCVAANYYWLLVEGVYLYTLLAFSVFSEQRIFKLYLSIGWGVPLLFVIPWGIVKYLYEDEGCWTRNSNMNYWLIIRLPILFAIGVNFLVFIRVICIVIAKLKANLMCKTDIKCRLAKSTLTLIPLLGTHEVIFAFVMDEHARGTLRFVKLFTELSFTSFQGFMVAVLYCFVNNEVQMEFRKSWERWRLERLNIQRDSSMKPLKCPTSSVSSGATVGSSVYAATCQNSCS
From the text: 3. Antagonistic Experiment with Exendin9-39
In order to corroborate that the active compounds had receptor specificity with respect to their activating effects on reporter gene and intracellular cAMP, Exendin9-39 (Eur. J. Pharmacol, 1994, 269: 183-191; Metabolism 2004, 53:252-259.), a specific antagonist of GLP-1R, was used to validate whether it could antagonize the agonistic activity of the above representative compounds to GLP-1R.
(§1) Cell strain: HEK 293/GLP-1R+Luc cell strain, in which GLP-1R and luciferase are stably expressed (self-made by National New Drugs Screening Center);
(§2) HEK 293/GLP-1R+Luc cells were inoculated, in a quantity of 20,000/100 μl/well, into a 96-well culture plate, and cultured at 37° C. overnight with a DMEM culture medium containing 10% fetal bovine serum and 500 μg/ml G418. Exendin9-39 was diluted to a certain concentration gradient, which was then added, in a quantity of 1 μl/well, into the above 96-well culture plate. The culture was performed under the conditions of 37° C., 5% CO2 for 6 h. Thereafter, the activity of luciferase was detected according to the specification in the kit of Steady-Glo™ luciferase analytic system, and the reading was performed by using a Victor^2 plate-reading machine.

GLP-1R [2] = target: T1, GLP-1R; assay: Determination of the concentration of intracellular cAMP (CatchPoint Cyclic AMP kit) in HEK 293/GLP-1R+Luc cells; format: cell-based; conditions: 10 min
From the text: 2. Determination of the Concentration of Intracellular cAMP
Since the concentration of intracellular cAMP can only be indirectly evaluated according to the above method for detecting the activation of reporter gene, it is necessary to determine the influence of active compounds on the concentration of intracellular cAMP by using a cAMP-determining kit, i.e., a functional re-screening.
cAMP-determining kit (Molecular Devices Co., CatchPoint® Cyclic AMP kit);
HEK 293/GLP-1R+Luc cell strain, in which GLP-1R and luciferase are stably expressed (self-made by National New Drugs Screening Center);
HEK 293/GLP-1R+Luc cells were inoculated, in a quantity of 20,000/100 μl/well, into a 96-well culture plate, and cultured at 37° C. overnight. The candidate compounds S4P, S3-20-32, S3-11-14, S6-14 and S8 were respectively diluted to a certain concentration gradient, which were then added, in a quantity of […], into the above 96-well culture plate. The culture was performed under the conditions of 37° C., 5% CO2 for 10 min. Thereafter, the concentration of intracellular cAMP was determined according to the specification in CatchPoint® Cyclic AMP kit.
The lower the reading was, the higher the concentration of intracellular cAMP was.

HEK 293/GLP-1R+Luc cells = assay: Cytotoxicity noted in the reporter gene test; format: cell-based, human; conditions: 6 h
From the text: GLP-1R is a G-protein coupling receptor. When GLP-1R binds to an agonist, the Ga subunit of G protein is activated to stimulate adenylate cyclase, which leads to the increase in the concentration of intracellular cAMP. Since the promoter region of proinsulin gene has a cAMP response element, cAMP promotes, after binding to this response element, the transcription of the proinsulin gene, thereby stimulating the expression and secretion of insulin (Diabetes, 2000, Vol. 49: 1156-1164). The experimental method employs a human embryonal nephric cell strain (HEK 293) which is stably transfected with the expression vector of GLP-1R gene and the expression vector of luciferase reporter gene under the regulation of cAMP response element, to detect its response to the candidate compound (Cell Biology, 1992, Vol. 89: 8641-8645; Proc. Natl. Acad. Sci. U.S.A. 1987, Vol. 84: 3434-3438). […]
as §2, with “Exendin9-39 was diluted to a certain concentration gradient, which was then added, in a quantity of 1 μl/well, into the above 96-well culture plate. The culture was performed under the conditions of 37° C., 5% CO2 for 6 h.” left out

GLP-1R [3] = target: T1, GLP-1R; assay: Testing the expression of reporter gene (luciferase under cAMP response element) in HEK 293/GLP-1R+Luc cells; format: cell-based; conditions: 6 h
From the text: 1. Testing the Expression of Reporter Gene
GLP-1R is a G-protein coupling receptor. When GLP-1R binds to an agonist, the Ga subunit of G protein is activated to stimulate adenylate cyclase, which leads to the increase in the concentration of intracellular cAMP. Since the promoter region of proinsulin gene has a cAMP response element, cAMP promotes, after binding to this response element, the transcription of the proinsulin gene, thereby stimulating the expression and secretion of insulin (Diabetes, 2000, Vol. 49: 1156-1164). The experimental method employs a human embryonal nephric cell strain (HEK 293) which is stably transfected with the expression vector of GLP-1R gene and the expression vector of luciferase reporter gene under the regulation of cAMP response element, to detect its response to the candidate compound (Cell Biology, 1992, Vol. 89: 8641-8645; Proc. Natl. Acad. Sci. U.S.A. 1987, Vol. 84: 3434-3438). When screening the candidate compounds, the compounds that may induce the expression of luciferase reporter gene are regarded as having the activity of activating GLP-1R.
as §1
as §2, with “Exendin9-39 was diluted to a certain concentration gradient, which was then added, in a quantity of 1 μl/well, into the above 96-well culture plate.” left out

[4] = final concentration 0.00001 mg/ml
[5] = final concentration 0.00003 mg/ml
[6] = final concentration 0.0001 mg/ml
[7] = final concentration 0.0003 mg/ml
[8] = final concentration 0.001 mg/ml
[9] = final concentration 0.003 mg/ml

effect on the expression of reporter gene induced by S4P (GLP-1R [1]; Table 3, FIG. 6): inhibit, in a dose-dependent manner
Compound: Exendin9-39 [reference compound]

antagonistic effect of Exendin9-39 on S4P (% reaction, taking the reaction of 3 μM S4P as 100%) (GLP-1R [1]; Exendin9-39 final concentration 0.03 nM): 101.8115% | antagonistic effect of Exendin9-39 on S4P (% reaction, taking the reaction of 3 μM S4P as 100%) (GLP-1R [1]; Exendin9-39 final concentration 0.1 nM): 96.64% | antagonistic effect of Exendin9-39 on S4P (% reaction, taking the reaction of 3 μM S4P as 100%) (GLP-1R [1]; Exendin9-39 final concentration 0.3 nM): 83.84% | antagonistic effect of Exendin9-39 on S4P (% reaction, taking the reaction of 3 μM S4P as 100%) (GLP-1R [1]; Exendin9-39 final concentration 1 nM): 90.78% | antagonistic effect of Exendin9-39 on S4P (% reaction, taking the reaction of 3 μM S4P as 100%) (GLP-1R [1]; Exendin9-39 final concentration 3 nM): 72.84% | antagonistic effect of Exendin9-39 on S4P (% reaction, taking the reaction of 3 μM S4P as 100%) (GLP-1R [1]; Exendin9-39 final concentration 10 nM): 52.48% | antagonistic effect of Exendin9-39 on S4P (% reaction, taking the reaction of 3 μM S4P as 100%) (GLP-1R [1]; Exendin9-39 final concentration 30 nM): 32.33% | antagonistic effect of Exendin9-39 on S4P (% reaction, taking the reaction of 3 μM S4P as 100%) (GLP-1R [1]; Exendin9-39 final concentration 100 nM): 18.77% | antagonistic effect of Exendin9-39 on S4P (% reaction, taking the reaction of 3 μM S4P as 100%) (GLP-1R [1]; Exendin9-39 final concentration 300 nM): 15.97% | antagonistic effect of Exendin9-39 on S4P (% reaction, taking the reaction of 3 μM S4P as 100%) (GLP-1R [1]; Exendin9-39 final concentration 1000 nM): 27.97% | antagonistic effect of Exendin9-39 on S4P (% reaction, taking the reaction of 3 μM S4P as 100%) (GLP-1R [1]; Exendin9-39 final concentration 3000 nM): 14.57% | antagonistic effect of Exendin9-39 on S4P (% reaction, taking the reaction of 3 μM S4P as 100%) (GLP-1R [1]; Exendin9-39 final concentration 10000 nM): 15.22% | receptor specificity of the biological activity (GLP-1R [1]; antagonised by Exendin9-39): mediated by GLP-1R | concentration of the intracellular cAMP (relative fluoresence intensity; lower reading = higher cAMP) (GLP-1R [2]; [4]): 3536.618 RFU | concentration of the intracellular cAMP (relative fluoresence intensity; lower reading = higher cAMP) (GLP-1R [2]; [5]): 2924.461 RFU | concentration of the intracellular cAMP (relative fluoresence intensity; lower reading = higher cAMP) (GLP-1R [2]; [6]): 2985.794 RFU | concentration of the intracellular cAMP (relative fluoresence intensity; lower reading = higher cAMP) (GLP-1R [2]; [7]): 2708.597 RFU | concentration of the intracellular cAMP (relative fluoresence intensity; lower reading = higher cAMP) (GLP-1R [2]; [8]): 1910.855 RFU | concentration of the intracellular cAMP (relative fluoresence intensity; lower reading = higher cAMP) (GLP-1R [2]; [9]): 2072.988 RFU | concentration of the intracellular cAMP (relative fluoresence intensity; lower reading = higher cAMP) (GLP-1R [2]; final concentration 0.01 mg/ml): 2310.616 RFU | concentration of the intracellular cAMP (relative fluoresence intensity; lower reading = higher cAMP) (GLP-1R [2]; final concentration 0.03 mg/ml): 2480.017 RFU | expression of the reporter gene (% reaction, taking the reaction of 30 nM GLP-1 as 100%) (GLP-1R [3]; final concentration 0.000003 mg/ml): 5.157% | expression of the reporter gene (% reaction, taking the reaction of 30 nM GLP-1 as 100%) (GLP-1R [3]; [4]): 5.151% | expression of the reporter gene (% reaction, taking the reaction of 30 nM GLP-1 as 100%) (GLP-1R [3]; [5]): 5.276% | expression of the reporter gene (% reaction, taking the reaction of 30 nM GLP-1 as 100%) (GLP-1R [3]; [6]): 5.697% | expression of the reporter gene (% reaction, taking the reaction of 30 nM GLP-1 as 100%) (GLP-1R [3]; [7]): 10.19% | expression of the reporter gene (% reaction, taking the reaction of 30 nM GLP-1 as 100%) (GLP-1R [3]; [8]): 22.23% | expression of the reporter gene (% reaction, taking the reaction of 30 nM GLP-1 as 100%) (GLP-1R [3]; [9]): 35.55% | expression of the reporter gene (% reaction, taking the reaction of 30 nM GLP-1 as 100%) (GLP-1R [3]; final concentration 0.01 mg/ml): 41.19%
Compound: COc1cc(C2C(NC(=O)c3ccc(NC(=O)C4CCCC4)cc3)(C(=O)O)C(c3ccc(OC(=O)c4cccs4)c(OC)c3)C2(NC(=O)c2ccc(NC(=O)C3CCCC3)cc2)C(=O)O)ccc1OC(=O)c1cccs1 (centres unmarked) [Compound S4P]
cytotoxicity in the reporter gene test (HEK 293/GLP-1R+Luc cells; final concentration 0.03 mg/ml): cytotoxic | cytotoxicity in the reporter gene test (HEK 293/GLP-1R+Luc cells; final concentration 0.1 mg/ml): cytotoxic

From patent publication US8039492B2, “Substituted cyclic compound, its preparation process and its medical use” (Shanghai Institute of Materia Medica, Chinese Academy of …, priority 2005, dated 2011)
